Like-named read-outs stand apart in the source and are kept apart here. Each block holds one compound with its values, some of them ahead of it.
Tests used:
[1] = tested on: OCTs; test: Inhibition of [14C]choline uptake in MCF-7 cells (competitive inhibition assay); assay type: cell-based, human
Description: (§1) The following day, after removal of the culture medium, the cells were carefully washed with prewarmed HBSS (Hanks’ balanced salt solution) containing 125 mM NaCl, 4.8 mM KCl, 1.2 mM MgSO4, 1.2 mM KH2PO4, 1.3 mM CaCl2, 5.6 mM glucose and 25 mM HEPES (pH 7.4). […] Then, the cells were washed three times with ice-cold HBSS (500 μL) and were lysed with 250 μL of 0.1-M NaOH in the ice bath, and the lysate was mixed with 1.0 mL of an emulsifier safe cocktail (PerkinElmer, Waltham, MA, USA). The radioactivity was measured by liquid scintillation counting (MicroBeta^2 counter, PerkinElmer, Waltham, MA, USA). The studies were carried out with the use of at least three replicates from the same cell passage.

[2] = tested on: OCTs; test: Inhibition of [14C]choline uptake in MDA-MB-231 cells (competitive inhibition assay); assay type: cell-based, human
Description: as §1

[3] = tested on: MCF-7 cells; details: metformin, cited from earlier work
[4] = tested on: MDA-MB-231 cells; details: metformin, cited from earlier work
[5] = tested on: MCF-7 cells; parameters: method as in PMID 30913467; details: up to 3000 µmol/L; cited from earlier work
[6] = tested on: MDA-MB-231 cells; parameters: method as in PMID 30913467; details: up to 3000 µmol/L; cited from earlier work
[7] = tested on: OCT3-BT20 cells; parameters: method as in PMID 26669511; details: OCT3-overexpressing BT-20 vs BT-20; cited from earlier work
[8] = tested on: MCF-7 cells; test: Cellular uptake of metformin sulfonamides in MCF-7 cells (HPLC); assay type: in vitro ADME, human
Description: (§2) The uptake of metformin sulfonamides (1–9) in MCF-7 and MDA-MB-231 cells was studied by incubation of the cells with 10−3000 μmol/L of compounds in 250 μL of prewarmed HBSS buffer at 37 °C for 10 min. Subsequently, the cells were then washed three times with 500 μL of ice-cold HBSS and lysed with 250 μL of 0.1-M NaOH. The samples were collected, centrifuged (5 min, 1400 rpm) and the supernatants were analyzed by the HPLC method. The concentration of each compound in the cells was calculated on the basis of the standard curve prepared by spiking known amounts of every compound on the cell layers in 250 μL of 0.1-M NaOH.
(§3) The concentration of the studied sulfonamides (1–9) was assessed using the HPLC system, consisting of an Agilent 1100 binary pump (Agilent Technologies Inc., Wilmington, DE, USA), an 1100 micro-vacuum degasser, an HP 1050 autosampler and an HP 1050 variable wavelength detector (operated at 235 nm). The chromatographic separations of compounds 1–9 were conducted on an Agilent Zorbax SB-C18 analytical column (4.6 mm × 150 mm, 5 μm) using an isocratic elution of water containing 0.1% formic acid (pH ca. 3.0) and acetonitrile containing 0.1% formic acid with a changing ratio, depending on the compound. The analyses were conducted at room temperature (RT). The detailed procedure of chromatographic analysis was described in our previous paper. The studies were conducted in quadruplicates.
(§4) The protein concentrations in representative wells of each plate were assessed using a Bio-Rad protein assay according to the Bradford method (EnVision, PerkinElmer, Inc., Waltham, MA, USA).

[9] = tested on: MDA-MB-231 cells; test: Cellular uptake of metformin sulfonamides in MDA-MB-231 cells (HPLC); assay type: in vitro ADME, human
Description: as §2, §3, §4

[10] = tested on: MCF-7 cells; test: Uptake in the presence of OCT and MATE inhibitors, MCF-7 cells; assay type: in vitro ADME, human
Description: (§5) The uptake of sulfonamide derivatives of metformin (1–9) in MCF-7 and MDA-MB-231 cells was studied also in the presence of disopyramide, cimetidine (OCT1 and 3 inhibitors), lopinavir (OCT and PMAT inhibitor) and methenamine (MATE and OCT2 inhibitors). The cells were incubated (37 °C, 10 min) with compounds 1–9 at concentrations of 400 and 800 μmol/L and inhibitors (disopyramide, cimetidine, lopinavir or methenamine) in 250 μL of prewarmed HBSS buffer. The protocol of determination of the compound concentration was as described above.

[11] = tested on: MDA-MB-231 cells; test: Uptake in the presence of OCT and MATE inhibitors, MDA-MB-231 cells; assay type: in vitro ADME, human
Description: as §5

[12] = tested on: MCF-7 cells; test: Cell viability WST-1 assay, MCF-7; assay type: cell-based; details: Homo sapiens, MCF7; WST-1, 24 h, mean ± SD (n = 6–8); read-out: IC50 inhibition of MCF-7 cells' viability
Description: (§6) The viability of MCF-7 and MDA-MB-231 cells was determined using a colorimetric WST-1 assay (Takara, Takara Bio Europe, Saint-Germain-en-Laye, France). Both cell lines were seeded at a density of 1 × 10^4 per well on 96-well plates and were cultured for 24 h to obtain 70% confluence. The following day, the cells were treated with various concentrations of compounds 1–9 diluted in the cell culture medium ([…]). The cells were incubated with tested compounds or pure medium (control) for 24 h (37 °C, 5% CO2). Afterwards, the cells were washed with 100 μL of culture medium, and then, the reagent dissolved in the medium was added (100 μL). The plates were incubated at the standard condition for 1.5 h, and the absorbance was read at 450 nm using a microplate reader (iMARK, Bio-Rad, Bio-Rad Laboratories Inc., Hercules, CA, USA). […] The results of samples treated with the test compounds were expressed as a percentage of the control samples. The data were presented as mean ± standard deviation (SD), n = 8. IC50 values (the concentration of the tested compound that inhibited cell growth by 50%) were calculated using a concentration-response curve (GraphPad Prism, Software, San Diego, CA, USA).
(§7) The concentrations contributing to the 50% of cell growth inhibition (IC50) were calculated using nonlinear regression analysis (fitting the curve to log (concentration) vs. cellular response).

[13] = tested on: MDA-MB-231 cells; test: Cell viability WST-1 assay, MDA-MB-231; assay type: cell-based; details: Homo sapiens, MDA-MB-231; WST-1, 24 h, mean ± SD (n = 6–8); read-out: IC50 inhibition of MDA-MB-231 cells' viability
Description: as §6, §7

[14] = reported previously, ref Markowicz-Piasecka et al., 2019
[15] = 800 μmol/L, 10 min incubation, 37 °C
[16] = Eadie-Hofstee analysis, transporter I
[17] = Eadie-Hofstee analysis, transporter II
[18] = compound and inhibitor 400 and 800 µmol/L, 10 min, 37 °C
[19] = summary from uptake with inhibitors

Compound: CN(C)C(=N)N=C(N)N [Metformin]
maximal inhibition of [14C] choline uptake ([1]; 2400 μmol/L): 34.3%
maximal inhibition of [14C] choline uptake ([2]; 2400 μmol/L): 29.9%
Vmax MCF-7 (Michaelis Menten curves) [3, 14]: 0.801 ± 0.296 nmol/min/mg
Km ([3]; reported previously, ref Markowicz-Piasecka et al., 2019, read-out: Km MCF-7 (Michaelis Menten curves)): 5.58 ± 1.56 mM
uptake into MCF-7 cells [3]: 0.107 ± 0.006 nmol/min/mg of proteins
Vmax MDA-231 cells (Michaelis Menten curves) [4, 14]: 0.718 ± 0.181 nmol/min/mg
Km ([4]; reported previously, ref Markowicz-Piasecka et al., 2019, read-out: Km MDA-231 cells (Michaelis Menten curves)): 3.38 ± 0.952 mM
uptake into MDA-MB-231 cells [4]: 0.117 ± 0.010 nmol/min/mg of proteins
effect on MCF-7 growth [5]: did not significantly affect
effect on MDA-MB-231 growth [6]: did not significantly affect
metformin uptake in OCT3-BT20 cells relative to BT-20 cells [7]: more than 13 fold

IC50 ([1]; mean ± SD (n = 3)): 2.06 ± 0.0584 mM
IC50 ([2]; mean ± SD (n = 3)): 2.49 ± 0.211 mM
uptake into MCF-7 cells [8, 15]: 1.11 ± 0.16 nmol/min/mg protein
uptake into MDA-MB-231 cells [9, 15]: 0.75 ± 0.29 nmol/min/mg protein
uptake in the presence of disopyramide, MCF-7 [10, 18]: significantly reduced
uptake in the presence of lopinavir, MCF-7 [10, 18]: significantly decreased
uptake in the presence of methenamine, MCF-7 [10, 18]: significantly decreased
interactions with OCT, PMAT and MATE1 transporters, MCF-7 [10, 19]: OCT1, PMAT, MATE1
uptake in the presence of cimetidine, MDA-MB-231 [11, 18]: significantly decreased
uptake in the presence of disopyramide, MDA-MB-231 [11, 18]: significantly decreased
uptake in the presence of methenamine, MDA-MB-231 [11, 18]: significantly decreased
interactions with OCT, PMAT and MATE1 transporters, MDA-MB-231 [11, 19]: OCT1, OCT3, MATE1
IC50 [12]: 1.14 ± 0.139 mM
IC50 [13]: 2.11 ± 0.137 mM
Compound: CN(C)C(=N)N=C(N)NS(=O)(=O)c1ccc(Br)cc1 [Compound 6]
Vmax, transporter I, MCF-7 [8, 16]: 0.7898 ± 0.12 nmol/min/mg
Km ([8]; Eadie-Hofstee analysis, transporter I, read-out: Km, transporter I, MCF-7): 0.308 ± 0.102 mM
Vmax, transporter II, MCF-7 [8, 17]: 13.64 ± 1.55 nmol/min/mg
Km ([8]; Eadie-Hofstee analysis, transporter II, read-out: Km, transporter II, MCF-7): 8.93 ± 1.1 mM
Vmax, transporter I, MDA-MB-231 [9, 16]: 2.644 ± 0.22 nmol/min/mg
Km ([9]; Eadie-Hofstee analysis, transporter I, read-out: Km, transporter I, MDA-MB-231): 1.93 ± 0.223 mM
Vmax, transporter II, MDA-MB-231 [9, 17]: 2.091 ± 0.15 nmol/min/mg
Km ([9]; Eadie-Hofstee analysis, transporter II, read-out: Km, transporter II, MDA-MB-231): 2.11 ± 0.172 mM
Vmax MDA-231 cells (Michaelis Menten curves) ([9]; Michaelis-Menten curve): 4.044 ± 1.302 nmol/min/mg
Km ([9]; Michaelis-Menten curve, read-out: Km MDA-231 cells (Michaelis Menten curves)): 3.75 ± 1.6 mM
